Assay results: patent US9624161B2 (priority 2009, dated 2017)
Several values for one entry are separate records, joined by “and”; a condition that tells them apart may be missing. Equal entries are not always repeated.

System: men with metastatic castration resistant prostate cancer (mCRPC)
Experiment: Study 6: secondary hormone therapy with Compound IV 125 mg, 250 mg or 500 mg in mCRPC/nmCRPC maintained on ADT
Format: in vivo, human
Description: Compound IV, is studied (Study 6) for the proposed indication secondary hormone therapy for metastatic castration resistant prostate cancer (mCRPC), for high risk non-metastatic castration resistant prostate cancer (nmCRPC) or advanced prostate cancer at high risk of progressing to CRPC, or any combination thereof.
The effect of Compound IV as secondary hormonal therapy that reduces serum PSA and serum free testosterone levels in men with metastatic castration resistant prostate cancer maintained on androgen deprivation therapy is studied. The study assesses the effects of Compound IV on serum PSA response and serum PSA progression in men with mCRPC on ADT with LHRH agonists, LHRH antagonists, or orchidectomy. This study also assesses the VTE risk of lower doses of Compound IV. Secondary endpoints include serum free testosterone levels, adrenal gland androgen precursor production (DHEA and DHEAS levels), progression free survival, and skeletal related events (SRE).
75 subjects with castration resistant prostate cancer patients with radiographic evidence of metastatic disease (T any-N any-M1) are enrolled in the study. These subjects have a median life expectancy of less than 20 months, i.e. more serious disease than the other subjects with advanced prostate cancer enrolled in the previous studies. All subjects have been previously treated with androgen deprivation therapy (ADT), have responded to the ADT and currently have a serum PSA >2 ng/mL or >2 ng/mL and representing a 25% increase above the nadir achieved on the ADT. Subjects are maintained on ADT throughout the study.
Each subject receives daily doses of 125 mg Compound IV, 250 mg Compound IV, or 500 mg Compound IV administered orally, until their serum PSA increases at least 25% and 2 ng/mL from the nadir at two successive serum PSA assessments after initiation of treatment with Compound IV.
Enrollment into this study is staggered by 1 cycle (30 days) such that the first 25 subjects are enrolled into the 125 mg Compound IV dose arm. These subjects are evaluated for incidence of venous thromboembolic events (VTE). When the last subject in the 125 mg Compound IV dose arm has completed 1 cycle of therapy (30 days) in this dose arm and there is an acceptable incidence rate of VTE in this dose arm at that time (less than 3), enrollment is commenced in the 250 mg Compound IV dose arm. These subjects are evaluated for the incidence of VTE. When all 25 subjects in the 250 mg Compound IV dose arm have completed 1 cycle of therapy (30 days) in this dose arm and there is an acceptable incidence rate of VTE in this dose arm at that time (less than 3), enrollment into the 500 mg Compound IV dose arm (25 subjects) is commenced.
125 mg Compound IV, 250 mg Compound IV, or 500 mg Compound IV will be administered daily to all subjects in the study until they have developed serum PSA progression (serum PSA has increased at least 25% and 2 ng/mL above the nadir at two successive sample times after initiation of treatment with Compound IV).
Assessments of serum total testosterone, serum free testosterone, serum SHGB and serum PSA concentrations are made on Days 15, 30, and every 30 days until their serum PSA has increased at least 25% and 2 ng/mL from the nadir at two successive sample times after initiation of treatment with Compound IV. Bone turnover markers are assessed at baseline (Day 1), Day 90, and End of Study.
The incidence and frequency of hot flashes is assessed at baseline (Day 1), Day 30, Day 60, Day 90 and End of Study.
The proportion of subjects with a 50% decline from baseline in serum PSA (confirmed by a second serum PSA assessment 30 days later) by Day 90 (with follow up confirmation by Day 120) […]

[1] = 250 mg, 11 evaluable patients (FIG. 61)
[2] = Study 6, 125 mg, 20 evaluable patients
[3] = Study 6, 125 mg, 21 evaluable patients
[4] = Study 6, 125 mg, mCRPC on ADT, Day 90, N 20
[5] = Study 6, 125 mg, mCRPC on ADT, N 20
[6] = Study 6, 125 mg, patients with hot flashes at baseline
[7] = Study 6, 125 mg, patients with no hot flashes at baseline

Question: `O=C(c1ccc(O)c(F)c1)N(c1ccc(O)cc1)c1ccc(F)cc1` [Compound IV, 3-fluoro-N-(4-fluorophenyl)-4-hydroxy-N-(4-hydroxyphenyl)benzamide] was tested. Which “Deep vein thrombosis events (DVTs)” value (125 mg) did it give?
Answer: No deep vein thrombosis events (DVTs) have been reported

Question: What about the “Evaluable patients with improvements in hot flash frequency or severity” value (125 mg) of the same compound?
Answer: 33%

Question: What about the “Evaluable patients with reductions in CTX” value (125 mg) of the same compound?
Answer: 60%

Question: And the “Evaluable patients with reductions in bone specific alkaline phosphatase” value (125 mg)?
Answer: 52%

Question: And the “Men that do not respond and have continually increasing PSA levels” value (125 mg)?
Answer: 6

Question: And the “Patients reporting a PSA decrease in response to therapy” value (125 mg)?
Answer: 24 patients

Question: What about the “Patients with maximum free T reductions greater than 50% from baseline” value (125 mg) of the same compound?
Answer: 24 of 30

Question: What about the “Patients with reductions in free T” value (125 mg) of the same compound?
Answer: 27 of 30

Question: What about the “SAEs or VTEs” value (125 mg) of the same compound?
Answer: no SAEs or VTEs

Question: And the “Subjects with decreased collagen C-telopeptide (CTX)” value (125 mg)?
Answer: 69%

Question: And the “Subjects with ≧50% decrease in PSA level” value (125 mg)?
Answer: 11%

Question: What about the “Patients with free T >0.7 pg/ml (Day 1) that go to <0.7 pg/mL” value (125 mg cohort) of the same compound?
Answer: 22/25

Question: And the “Patients with total T >20 ng/dL (Day 1) that do NOT go to <20 ng/dL” value (125 mg cohort)?
Answer: 0/3

Question: And the “Patients with total T >20 ng/dL (Day 1) that go to <20 ng/dL” value (125 mg cohort)?
Answer: 3/3

Question: And the “Patients with improvement in both frequency and severity of hot flashes” value (125 mg, 18 evaluable patients)?
Answer: 22%

Question: And the “Patients with improvement of frequency or severity and stability of the other measurement” value (125 mg, 18 evaluable patients)?
Answer: 11%

Question: What about the “Patients with stability in frequency and severity of hot flashes” value (125 mg, 18 evaluable patients) of the same compound?
Answer: 50%

Question: What about the “Patients with worsening of either frequency or severity of hot flashes” value (125 mg, 18 evaluable patients) of the same compound?
Answer: 17%

Question: What about the “SHBG level relative to Day 0 in all treated men” value (125 mg, at least 90 days, initial 15 patients) of the same compound?
Answer: ≥ 150 % of Day 0

Question: And the “Men with suboptimal castration (free T>0.7 pg/ml) that became optimally castrated” value (125 mg, by day 90, initial 15 patients)?
Answer: 91%

Question: And the “Treated men with improvement and stability of bone turnover markers” value (125 mg, initial group, 11 evaluable subjects)?
Answer: at least 73%

Question: What about the “Patients with >45% decrease in PSA” value (125 mg, prior to day 90, initial 15 patients) of the same compound?
Answer: 4/15 and 4

Question: And the “Subjects with any level of PSA decline” value (250 mg)?
Answer: 85%

Question: And the “Subjects with decreased collagen C-telopeptide (CTX)” value (250 mg)?
Answer: 81%

Question: What about the “Subjects with ≧50% decrease in PSA level” value (250 mg) of the same compound?
Answer: 30%

Question: What about the “Patients with free T >0.7 pg/ml (Day 1) that go to <0.7 pg/mL” value (250 mg cohort) of the same compound?
Answer: 9/10

Question: What about the “Patients with total T >20 ng/dL (Day 1) that do NOT go to <20 ng/dL” value (250 mg cohort) of the same compound?
Answer: 0/4

Question: What about the “Patients with total T >20 ng/dL (Day 1) that go to <20 ng/dL” value (250 mg cohort) of the same compound?
Answer: 4/4

Question: And the “Reported drug related serious adverse events (SAE)” value (250 mg daily)?
Answer: one

Question: And the “Subjects that reported adverse events (AE's)” value (250 mg daily)?
Answer: seven

Question: And the “Median SHBG level” value (250 mg daily, initial 20 patients, 90 days)?
Answer: 297 % of baseline

Question: What about the “SAE possibly drug related” value (250 mg daily, patient required hospitalization) of the same compound?
Answer: Phlebothrombosis-Grade 3

Question: And the “Patients stable in both hot flash measurements” value [1]?
Answer: 45%

Question: What about the “Patients with improvement in both/either frequency and severity of hot flashes” value [1] of the same compound?
Answer: 36%

Question: And the “Bone turnover (CTX) decreased (improved), share of subjects” value (Study 6, 125 mg cohort)?
Answer: 69% are decreased

Question: What about the “SHBG, median (of baseline)” value (Study 6, 125 mg cohort) of the same compound?
Answer: Median - 158%

Question: And the “PSA response: subjects with ≧50% decrease in PSA” value (Study 6, 125 mg cohort, 4/38)?
Answer: 4/38 ≧ 50% (11%)

Question: And the “Hot flashes improved, in men experiencing them on Day 1” value (Study 6, 125 mg cohort, 7/24)?
Answer: 7/24 improved (29%)

Question: And the “Hot flashes stable, in men experiencing them on Day 1” value (Study 6, 125 mg cohort, 12/24)?
Answer: 12/24 stable (50%)

Question: And the “CTx decreased, # of patients (%)” value [2]?
Answer: 12/20 (60%)

Question: And the “CTx increased, # of patients (%)” value [2]?
Answer: 5/20 (25%)

Question: What about the “CTx unchanged, # of patients (%)” value [2] of the same compound?
Answer: 3/20 (15%)

Question: What about the “BSAP decreased, # of patients (%)” value [3] of the same compound?
Answer: 11/21 (52%)

Question: What about the “BSAP increased, # of patients (%)” value [3] of the same compound?
Answer: 8/21 (38%)

Question: And the “BSAP unchanged, # of patients (%)” value [3]?
Answer: 2/21 (10%)

Question: And the “Adverse event frequency (%): Bone pain” value (Study 6, 125 mg, 34 subjects)?
Answer: 3 (9%)

Question: What about the “Adverse event frequency (%): Gynecomastia (grade 2)” value (Study 6, 125 mg, 34 subjects) of the same compound?
Answer: 4 (12%)

Question: And the “Adverse event frequency (%): Gynecomastia/breast tenderness (grade 1)” value (Study 6, 125 mg, 34 subjects)?
Answer: 4 (12%)

Question: What about the “Adverse event frequency (%): Loss of appetite” value (Study 6, 125 mg, 34 subjects) of the same compound?
Answer: 3 (9%)

Question: What about the “Adverse event frequency (%): Nausea” value (Study 6, 125 mg, 34 subjects) of the same compound?
Answer: 2 (6%)

Question: What about the “Adverse event frequency: VTE” value (Study 6, 125 mg, 34 subjects) of the same compound?
Answer: 0

Question: And the “Free testosterone level, mean” value [4]?
Answer: 0.57 pg/mL

Question: What about the “Free testosterone level, median” value [4] of the same compound?
Answer: 0.45 pg/mL

Question: What about the “Free testosterone, % change from baseline to Day 90, median” value [5] of the same compound?
Answer: −57.14%

Question: What about the “Free testosterone, change from baseline to Day 90, median” value [5] of the same compound?
Answer: -0.50 pg/mL

Question: And the “Free testosterone, change from baseline to Day 90, mean” value (Study 6, 125 mg, mCRPC on ADT, N 20, P 0.0002)?
Answer: -0.74 pg/mL

Question: What about the “Free testosterone, % change from baseline to Day 90, mean” value (Study 6, 125 mg, mCRPC on ADT, N 20, P 0.0035) of the same compound?
Answer: −34.59%

Question: What about the “Change in hot flashes (frequency, severity): (Better, Better), % of patients” value [6] of the same compound?
Answer: 18.75%

Question: And the “Change in hot flashes (frequency, severity): (Better, Stable), % of patients” value [6]?
Answer: 18.75%

Question: And the “Change in hot flashes (frequency, severity): (Better, Worse), % of patients” value [6]?
Answer: 6.25%

Question: And the “Change in hot flashes (frequency, severity): (Stable, Stable), % of patients” value [6]?
Answer: 37.50%

Question: What about the “Change in hot flashes (frequency, severity): (Stable, Worse), % of patients” value [6] of the same compound?
Answer: 6.25%

Question: What about the “Change in hot flashes (frequency, severity): (Worse, Worse), % of patients” value [6] of the same compound?
Answer: 12.50%

Question: And the “Change in hot flashes (frequency, severity): (Stable, Stable), % of patients” value [7]?
Answer: 77.78%

Question: And the “Change in hot flashes (frequency, severity): (Worse, Worse), % of patients” value [7]?
Answer: 22.22%

Question: What about the “SHBG, mean (of baseline)” value (Study 6, 250 mg cohort) of the same compound?
Answer: Mean - 294%

Question: What about the “SHBG, median (of baseline)” value (Study 6, 250 mg cohort) of the same compound?
Answer: Median - 297%

Question: And the “Hot flashes improved, in men experiencing them on Day 1” value (Study 6, 250 mg cohort, 4/11)?
Answer: 4/11 improved (36%)

Question: What about the “Hot flashes stable, in men experiencing them on Day 1” value (Study 6, 250 mg cohort, 5/11) of the same compound?
Answer: 5/11 stable (45%)

Question: What about the “PSA response: subjects with ≧50% decrease in PSA” value (Study 6, 250 mg cohort, 6/20, Day 90) of the same compound?
Answer: 6/20 ≧ 50% (30%)

Question: And the “Bone turnover (CTX) decreased (improved), share of subjects” value (Study 6, 250 mg cohort, 13/16)?
Answer: 13/16 (81%) are

Question: And the “Reported adverse event: Bilateral Breast Tenderness, grade” value (Study 6, 250 mg daily)?
Answer: Grade 1

Question: What about the “Reported adverse event: Diarrhea, grade” value (Study 6, 250 mg daily) of the same compound?
Answer: Grade 1

Question: What about the “Reported adverse event: Gynecomastia, grade” value (Study 6, 250 mg daily) of the same compound?
Answer: Grade 2

Question: What about the “Reported adverse event: Nipple Pain, grade” value (Study 6, 250 mg daily) of the same compound?
Answer: Grade 1

Question: And the “Reported adverse event: Nipple Tenderness, grade” value (Study 6, 250 mg daily)?
Answer: Grade 1

Question: What about the “Reported adverse event: Sensitivity of Mammila, grade” value (Study 6, 250 mg daily) of the same compound?
Answer: Grade 1
